Source: the supplement of paper PMC10307832

How the values were obtained:
Assay in all cases: relative viability (nuclei count vs DMSO), 5 days (fraction); higher = more cells survive
Gemcitabine + Linsitinib = compound: Nc1ccn([C@@H]2O[C@H](CO)[C@@H](O)C2(F)F)c(=O)n1 [Gemcitabine] + C[C@]1(O)C[C@@H](c2nc(-c3ccc4ccc(-c5ccccc5)nc4c3)c3c(N)nccn32)C1 [Linsitinib] (partner 1 µM)
How it was run: (§1)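 Dosing by pin tool came one day after lung cancer cell lines were seeded in 1536-well plates, using either one drug or a fixed anchor-drug dose plus five library-drug doses (not always all listed) in √10 steps. After 5 days, nuclei were counted on 4× images. Relative viability is treated-well nuclei count divided by vehicle-well nuclei count, and values are medians of duplicate plates.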

Gemcitabine + Pemetrexed = compound: Nc1ccn([C@@H]2O[C@H](CO)[C@@H](O)C2(F)F)c(=O)n1 [Gemcitabine] + Nc1nc2[nH]cc(CCc3ccc(C(=O)N[C@@H](CCC(=O)O)C(=O)O)cc3)c2c(=O)[nH]1 [Pemetrexed] (partner 0.2 µM)
How it was run: as §1

Gemcitabine + Vorinostat = compound: Nc1ccn([C@@H]2O[C@H](CO)[C@@H](O)C2(F)F)c(=O)n1 [Gemcitabine] + O=C(CCCCCCC(=O)Nc1ccccc1)NO [Vorinostat] (partner 1 µM)
How it was run: as §1

Gemcitabine + Olaparib = compound: Nc1ccn([C@@H]2O[C@H](CO)[C@@H](O)C2(F)F)c(=O)n1 [Gemcitabine] + O=C(c1cc(Cc2n[nH]c(=O)c3ccccc23)ccc1F)N1CCN(C(=O)C2CC2)CC1 [Olaparib] (partner 8 µM)
How it was run: as §1

| Cell Line | relative viability (Gemcitabine + Linsitinib; first compound 0.001 µM) | relative viability (Gemcitabine + Linsitinib; first compound 0.003162 µM) | relative viability (Gemcitabine + Linsitinib; first compound 0.01 µM) | relative viability (Gemcitabine + Linsitinib; first compound 0.03162 µM) | relative viability (Gemcitabine + Linsitinib; first compound 0.1 µM) | relative viability (Gemcitabine + Pemetrexed; first compound 0.001 µM) | relative viability (Gemcitabine + Pemetrexed; first compound 0.003162 µM) | relative viability (Gemcitabine + Pemetrexed; first compound 0.01 µM) | relative viability (Gemcitabine + Pemetrexed; first compound 0.03162 µM) | relative viability (Gemcitabine + Pemetrexed; first compound 0.1 µM) | relative viability (Gemcitabine + Vorinostat; first compound 0.001 µM) | relative viability (Gemcitabine + Vorinostat; first compound 0.003162 µM) | relative viability (Gemcitabine + Vorinostat; first compound 0.01 µM) | relative viability (Gemcitabine + Vorinostat; first compound 0.03162 µM) | relative viability (Gemcitabine + Vorinostat; first compound 0.1 µM) | relative viability (Gemcitabine + Olaparib; first compound 0.001 µM) | relative viability (Gemcitabine + Olaparib; first compound 0.003162 µM) | relative viability (Gemcitabine + Olaparib; first compound 0.01 µM) | relative viability (Gemcitabine + Olaparib; first compound 0.03162 µM) | relative viability (Gemcitabine + Olaparib; first compound 0.1 µM) |
| --- | --- | --- | --- | --- | --- | --- | --- | --- | --- | --- | --- | --- | --- | --- | --- | --- | --- | --- | --- | --- |
| NCI-H2009 | 1.23 | 0.722 | 0.29 | 0.156 | 0.119 | 1.08 | 0.882 | 0.473 | 0.127 | 0.0868 | 0.604 | 0.552 | 0.289 | 0.115 | 0.0881 | 0.717 | 0.436 | 0.191 | 0.102 | 0.0738 |
| NCI-H2023 | 0.8 | 0.631 | 0.478 | 0.0945 | 0.0741 | 0.265 | 0.282 | 0.152 | 0.0833 | 0.0801 | 0.773 | 0.388 | 0.259 | 0.0711 | 0.061 | 0.505 | 0.414 | 0.236 | 0.161 | 0.0679 |
| NCI-H2085 | 0.795 | 0.967 | 0.705 | 0.57 | 0.404 | 0.94 | 0.882 | 0.827 | 0.772 | 0.406 | 0.857 | 0.739 | 0.652 | 0.621 | 0.368 | 0.756 | 0.786 | 0.699 | 0.597 | 0.426 |
| NCI-H2087 | 0.93 | 0.808 | 0.579 | 0.217 | 0.183 | 0.666 | 0.581 | 0.263 | 0.113 | 0.105 | 0.862 | 0.174 | 0.304 | 0.0713 | 0.109 | 0.69 | 0.413 | 0.254 | 0.0942 | 0.0872 |
| NCI-H2126 | 0.712 | 0.673 | 0.692 | 0.51 | 0.315 | 0.628 | 0.742 | 0.628 | 0.577 | 0.3 | 0.841 | 0.837 | 0.707 | 0.515 | 0.275 | 0.888 | 0.933 | 0.867 | 0.562 | 0.262 |
| NCI-H2228 | 0.569 | 0.666 | 0.186 | 0.217 | 0.112 | 0.348 | 0.332 | 0.166 | 0.092 | 0.112 | 0.429 | 0.374 | 0.226 | 0.0768 | 0.217 | 0.627 | 0.333 | 0.152 | 0.144 | 0.0825 |
| NCI-H2347 | 1 | 0.918 | 0.88 | 0.606 | 0.458 | 0.43 | 0.391 | 0.409 | 0.357 | 0.366 | 0.584 | 0.453 | 0.507 | 0.327 | 0.281 | 0.603 | 0.529 | 0.496 | 0.383 | 0.373 |
| NCI-H2405 | 0.965 | 0.651 | 0.393 | 0.237 | 0.182 | 1 | 0.91 | 0.552 | 0.228 | 0.184 | 1.03 | 0.784 | 0.543 | 0.243 | 0.197 | 0.842 | 0.766 | 0.361 | 0.23 | 0.179 |
| NCI-H3122 | 1.04 | 0.957 | 0.892 | 0.262 | 0.174 | 0.196 | 0.206 | 0.191 | 0.138 | 0.105 | 0.926 | 1.09 | 0.618 | 0.202 | 0.098 | 0.622 | 0.625 | 0.396 | 0.136 | 0.107 |
| PC-3 [JPC-3] | 1.03 | 0.77 | 0.692 | 0.342 | 0.309 | 1.23 | 0.566 | 0.434 | 0.414 | 0.31 | 0.659 | 0.536 | 0.36 | 0.338 | 0.366 | 1.24 | 0.614 | 0.49 | 0.478 | 0.349 |
| PC-14 | 0.936 | 0.6 | 0.366 | 0.147 | 0.0669 | 0.132 | 0.168 | 0.0563 | 0.0461 | 0.0413 | 0.82 | 0.165 | 0.0458 | 0.0558 | 0.0381 | 0.256 | 0.13 | 0.0358 | 0.0472 | 0.0357 |
| RERF-LC-KJ | 0.856 | 0.939 | 0.821 | 0.739 | 0.296 | 0.5 | 0.485 | 0.459 | 0.357 | 0.263 | 0.661 | 0.682 | 0.709 | 0.452 | 0.246 | 1 | 0.87 | 0.804 | 0.389 | 0.293 |
| SK-LU-1 | 1.11 | 0.51 | 0.245 | 0.211 | 0.219 | 1.01 | 0.434 | 0.252 | 0.2 | 0.237 | 0.753 | 0.339 | 0.267 | 0.251 | 0.252 | 0.431 | 0.188 | 0.181 | 0.183 | 0.168 |
| SK-MES-1 | 1.07 | 0.555 | 0.292 | 0.197 | 0.18 | 0.804 | 0.271 | 0.2 | 0.201 | 0.173 | 0.839 | 0.254 | 0.181 | 0.185 | 0.178 | 0.587 | 0.22 | 0.165 | 0.199 | 0.161 |
| SW 1573 | 0.904 | 0.726 | 0.148 | 0.127 | 0.0847 | 0.876 | 0.732 | 0.0969 | 0.0574 | 0.0459 | 0.75 | 0.591 | 0.122 | 0.0661 | 0.0393 | 0.413 | 0.295 | 0.0949 | 0.102 | 0.0546 |
| UMC-11 | 0.993 | 1.03 | 0.963 | 0.956 | 0.382 | 0.814 | 0.769 | 0.747 | 0.676 | 0.403 | 0.339 | 0.505 | 0.425 | 0.256 | 0.152 | 0.41 | 0.496 | 0.356 | 0.38 | 0.247 |
